This passage reports IC50 results from patent US9796704B2, “Substituted quinazolines as receptor-type kinase inhibitors” (Symphony Evolution, Inc., priority 2002, dated 2017).

Some results are limits rather than exact numbers.

For one assay, the target named is EphB4 (Homo sapiens (Human), UniProt P54760). The assay can be described thus: EphB4 kinase inhibition, 33P phosphoryl transfer assay (radiometric). In kind it is biochemical.
A further assay concerns the target EphA2 (Homo sapiens (Human), UniProt P29317). The assay can be described thus: EphA2 kinase inhibition, luciferase-coupled chemiluminescent assay (LCCA). Particulars: read-out: EphA2 IC50.
Another assay addresses EGFR (Homo sapiens (Human), UniProt P00533). The assay is described as follows: EGFR kinase inhibition, luciferase-coupled chemiluminescent assay (LCCA). The conditions noted are these: read-out: EGFR IC50.

Chain of EphA2 (P29317 598-890): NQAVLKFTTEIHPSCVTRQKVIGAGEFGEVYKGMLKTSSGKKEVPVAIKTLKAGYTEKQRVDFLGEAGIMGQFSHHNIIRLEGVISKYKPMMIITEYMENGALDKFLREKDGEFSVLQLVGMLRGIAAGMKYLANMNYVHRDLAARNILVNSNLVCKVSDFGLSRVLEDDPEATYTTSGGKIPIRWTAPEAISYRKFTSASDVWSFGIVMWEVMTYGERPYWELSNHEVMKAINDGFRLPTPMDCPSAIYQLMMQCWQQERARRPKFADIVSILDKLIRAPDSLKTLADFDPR
Chain of EphB4 (P54760 605-890): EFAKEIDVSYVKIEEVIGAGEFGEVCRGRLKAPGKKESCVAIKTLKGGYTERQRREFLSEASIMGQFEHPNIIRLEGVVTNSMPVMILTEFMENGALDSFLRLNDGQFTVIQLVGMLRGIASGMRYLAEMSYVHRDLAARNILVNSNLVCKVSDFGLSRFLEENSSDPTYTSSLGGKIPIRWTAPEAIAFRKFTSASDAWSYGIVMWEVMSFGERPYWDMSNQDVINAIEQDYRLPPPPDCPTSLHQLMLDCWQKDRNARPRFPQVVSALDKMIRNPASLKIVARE
Chain of EGFR (P00533 672-1210): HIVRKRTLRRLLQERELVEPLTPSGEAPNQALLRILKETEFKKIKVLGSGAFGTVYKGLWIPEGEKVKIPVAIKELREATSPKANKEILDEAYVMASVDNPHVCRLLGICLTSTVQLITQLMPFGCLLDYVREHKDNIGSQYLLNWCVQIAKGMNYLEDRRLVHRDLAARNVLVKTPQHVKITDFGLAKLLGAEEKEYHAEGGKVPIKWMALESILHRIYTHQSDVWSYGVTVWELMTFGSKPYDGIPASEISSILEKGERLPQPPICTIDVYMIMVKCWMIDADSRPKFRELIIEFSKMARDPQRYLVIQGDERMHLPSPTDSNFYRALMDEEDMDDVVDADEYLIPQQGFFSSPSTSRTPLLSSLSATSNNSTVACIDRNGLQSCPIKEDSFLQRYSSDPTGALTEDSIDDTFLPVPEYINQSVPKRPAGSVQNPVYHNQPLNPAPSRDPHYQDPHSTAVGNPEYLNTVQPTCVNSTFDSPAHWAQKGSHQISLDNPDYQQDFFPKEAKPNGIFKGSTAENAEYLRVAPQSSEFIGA

What is called IC50 is the midpoint of a concentration-inhibition curve. Take `COc1cc2c(Nc3ccc(Cl)c(Cl)c3)ncnc2cc1OCc1nnc(-c2ccc(C)cc2)o1` [Example 228, N-(3,4-dichlorophenyl)-6-(methyloxy)-7-({[5-(4-methylphenyl)-1,3,4-oxadiazol-2-yl]methyl}oxy)quinazolin-4-amine]: the 50% inhibitory concentration (IC50) against EphB4 was less than 50 nM; on EphA2, 50 to 1000 nM; at EGFR, less than 50 nM.

Turning to `COc1cc2c(Nc3ccc(Cl)c(Cl)c3)ncnc2cc1OCc1nccn1Cc1ccccc1` [Example 229, N-(3,4-dichlorophenyl)-6-(methyloxy)-7-({[1-(phenylmethyl)-lH-imidazol-2-yl]methyl}oxy)quinazolin-4-amine], the half-inhibitory concentration (IC50) against EphB4 is 50 to 1000 nM; on EphA2, 1000 to 20000 nM; at EGFR, less than 50 nM.

On to `COc1cc2c(Nc3ccc(Cl)c(Cl)c3)ncnc2cc1OCc1csc(N(C)C)n1` [Example 240, N-(3,4-dichlorophenyl)-7-({[2-(dimethylamino)-1,3-thiazol-4-yl]methyl}oxy)-6-(methyloxy)quinazolin-4-amine], for which the IC50 against EphB4 is less than 50 nM; at EphA2 it was 50 to 1000 nM; at EGFR, less than 50 nM.

As to `CCN1CCCOC(COc2cc3ncnc(Nc4ccc(Cl)c(Cl)c4)c3cc2OC)C1` (stereo not drawn) [Example 241, N-(3,4-dichlorophenyl)-7-{[(4-ethyl-1,4-oxazepan-2-yl)methyl]oxy}-6-(methyloxy)quinazolin-4-amine], the IC50 on EphB4, at EphA2 and at EGFR was less than 50 nM throughout.

On to `COc1cc2c(Nc3ccc(Cl)c(Cl)c3)ncnc2cc1OCc1csc(CO)n1` [Example 246, [4-({[4-[(3,4-dichlorophenyl)amino]-6-(methyloxy)quinazolin-7-yl]oxy}methyl)-1,3-thiazol-2-yl]methanol], for which the IC50 against EphB4, on EphA2 and on EGFR was less than 50 nM in each case.

Consider `COc1cc2c(Nc3ccc(Cl)c(Cl)c3)ncnc2cc1OCc1csc([C@@H]2CSCN2)n1` [Example 248, N-(3,4-dichlorophenyl)-6-(methyloxy)-7-[({2-[(4S)-1,3-thiazolidin-4-yl]-1,3-thiazol-4-yl}methyl)oxy]quinazolin-4-amine], for which the IC50 was 50 to 1000 nM against EphB4, 50 to 1000 nM on EphA2 and less than 50 nM at EGFR.

For `COc1cc2c(Nc3ccc(Cl)c(Cl)c3)ncnc2cc1OCc1csc(C2CCCCN2)n1` (stereo not drawn) [Example 249, N-(3,4-dichlorophenyl)-6-(methyloxy)-7-{[(2-piperidin-2-yl-1,3-thiazol-4-yl)methyl]oxy}quinazolin-4-amine], the values for the IC50 against EphB4, on EphA2 and on EGFR were 50 to 1000 nM, 50 to 1000 nM and less than 50 nM, respectively.

On to `COc1cc2c(Nc3ccc(Cl)c(Cl)c3)ncnc2cc1OCc1csc(C2CCCCN2C)n1` (stereo not drawn) [Example 250, N-(3,4-dichlorophenyl)-6-(methyloxy)-7-({[2-(1-methylpiperidin-2-yl)-1,3-thiazol-4-yl]methyl}oxy)quinazolin-4-amine], for which the IC50 at EphB4 was 50 to 1000 nM; at EphA2, 50 to 1000 nM; on EGFR, less than 50 nM.

Regarding `COc1cc2c(Nc3ccc(Cl)c(Cl)c3)ncnc2cc1OCc1csc(C2CCCNC2)n1` (stereo not drawn) [Example 251, N-(3,4-dichlorophenyl)-6-(methyloxy)-7-{[(2-piperidin-3-yl-1,3-thiazol-4-yl)methyl]oxy}quinazolin-4-amine], the IC50 at EphB4 is 50 to 1000 nM; at EphA2, 1000 to 20000 nM; on EGFR, less than 50 nM.

Consider `CCN1CCCCC1c1nc(COc2cc3ncnc(Nc4ccc(Cl)c(Cl)c4)c3cc2OC)cs1` (stereo not drawn) [Example 253, N-(3,4-dichlorophenyl)-7-({[2-(1-ethylpiperidin-2-yl)-1,3-thiazol-4-yl]methyl}oxy)-6-(methyloxy)quinazolin-4-amine], for which the figures for the concentration for half-maximal inhibition (IC50) at EphB4, at EphA2 and on EGFR were 1000 to 20000 nM, 1000 to 20000 nM and less than 50 nM, respectively.
